In US7816489B2, “Methods for making intermediates and oxytocin analogues” (Ferring B.V., priority 2002, dated 2010):

Biological target: T1, Recombinant human oxytocin receptors (Homo sapiens, UniProt P30559)
T1 construct: expressed in transfected cells; host or cells: CHO cells
T1 sequence (P30559 1-389): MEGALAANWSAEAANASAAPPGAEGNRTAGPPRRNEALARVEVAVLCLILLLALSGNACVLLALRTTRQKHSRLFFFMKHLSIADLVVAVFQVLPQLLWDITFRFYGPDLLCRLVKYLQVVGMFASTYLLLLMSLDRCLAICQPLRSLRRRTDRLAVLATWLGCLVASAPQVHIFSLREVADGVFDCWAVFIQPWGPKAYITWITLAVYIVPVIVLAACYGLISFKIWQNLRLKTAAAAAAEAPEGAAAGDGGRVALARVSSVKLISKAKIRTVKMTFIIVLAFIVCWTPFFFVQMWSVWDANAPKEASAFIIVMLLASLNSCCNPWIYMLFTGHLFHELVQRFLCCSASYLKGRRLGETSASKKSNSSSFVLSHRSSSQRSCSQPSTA
Test: Oxytocin receptor binding assay, [125I]-oxytocin, membrane fraction of CHO cells
Conditions: receptors expressed in CHO cells; [125I]-oxytocin displacement; read-out: inhibition constant Ki
Procedure: Recombinant human oxytocin receptors were expressed in CHO cells using standard molecular biological techniques. A membrane fraction was prepared and incubated in the presence of [^125I]-oxytocin and varying concentrations of equivalent heptapeptide analogue. Membranes were then isolated by filtration and counted for radioactivity to determine oxytocin binding. An inhibition constant Ki was determined for the analogue.

Ki: 0.1 nM
Compound: CC[C@@H](C)[C@@H]1NC(=O)[C@H]([C@@H](C)CC)NC(=O)[C@@H](Cc2c[nH]c3ccccc23)NC(=O)CCSCC[C@@H](C(=O)N(C)[C@H](CO)CCCN)NC(=O)[C@H](CC(N)=O)NC1=O [IV]
